Data taken from PubChem BioAssay AID1845203 (Molecular Pharmacology Branch, DTP, NCI, 2023).

Test system: G-401 tumor spheroids, viability % test/control
Test: Anticancer human tumor G-401 cell line growth inhibition;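 note: spheroids exposed to compound for 7 days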;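 for viability, T/C: 100% = DMSO vehicle-treated spheroids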
Conditions: spheroids with HUVEC and MSC; for viability, T/C: stronger effect = lower value
Method in brief: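 Single agents and combinations were tested on spheroids built from tumor cells plus HUVEC and hMSC, at half-log dilutions starting at or near clinical Cmax, else 10 microM; final DMSO 0.25% (v/v).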

[1] = curve of first compound, second compound 0.003 µM
[2] = curve of first compound, second compound 0.00949 µM
[3] = curve of first compound, second compound 0.03 µM
[4] = curve of first compound, second compound 0.0949 µM
[5] = curve of first compound, second compound 0.3 µM

Question: Which results are given for `Cc1sc2c(c1C)C(c1ccc(Cl)cc1)=NC(CC(=O)Nc1ccc(O)cc1)c1nnc(C)n1-2` (stereo unspecified) + CC[C@@]1(O)C(=O)OCc2c1cc1n(c2=O)Cc2cc3c(CN(C)C)c(O)ccc3nc2-1?
Answer: IC50 [1]: 46.5 nM; IC50 [2]: < 9.49 nM; IC50 [3]: < 9.49 nM; IC50 [4]: < 9.49 nM; IC50 [5]: < 9.49 nM; viability, T/C (second compound 0.003 µM, first compound 0.00949 µM): 72%; viability, T/C (second compound 0.003 µM, first compound 0.03 µM): 57.4%; viability, T/C (second compound 0.003 µM, first compound 0.0949 µM): 38.5%; viability, T/C (second compound 0.003 µM, first compound 0.3 µM): 25.3%; viability, T/C (second compound 0.003 µM, first compound 0.949 µM): 15.4%; viability, T/C (second compound 0.003 µM, first compound 3 µM): 6.8%; viability, T/C (second compound 0.00949 µM, first compound 0.00949 µM): 38.3%; viability, T/C (second compound 0.00949 µM, first compound 0.03 µM): 40.3%; viability, T/C (second compound 0.00949 µM, first compound 0.0949 µM): 22.1%; viability, T/C (second compound 0.00949 µM, first compound 0.3 µM): 17%; viability, T/C (second compound 0.00949 µM, first compound 0.949 µM): 6.36%; viability, T/C (second compound 0.00949 µM, first compound 3 µM): 3.51%; viability, T/C (second compound 0.03 µM, first compound 0.00949 µM): 13.9%; viability, T/C (second compound 0.03 µM, first compound 0.03 µM): 11.6%; viability, T/C (second compound 0.03 µM, first compound 0.0949 µM): 9.1%; viability, T/C (second compound 0.03 µM, first compound 0.3 µM): 6.33%; viability, T/C (second compound 0.03 µM, first compound 0.949 µM): 3.18%; viability, T/C (second compound 0.03 µM, first compound 3 µM): 1.34%; viability, T/C (second compound 0.0949 µM, first compound 0.00949 µM): 7.96%; viability, T/C (second compound 0.0949 µM, first compound 0.03 µM): 5.07%; viability, T/C (second compound 0.0949 µM, first compound 0.0949 µM): 4.63%; viability, T/C (second compound 0.0949 µM, first compound 0.3 µM): 2.93%; viability, T/C (second compound 0.0949 µM, first compound 0.949 µM): 1.21%; viability, T/C (second compound 0.0949 µM, first compound 3 µM): 0.82%; viability, T/C (second compound 0.3 µM, first compound 0.00949 µM): 4.4%; viability, T/C (second compound 0.3 µM, first compound 0.03 µM): 3.79%; viability, T/C (second compound 0.3 µM, first compound 0.0949 µM): 3.23%; viability, T/C (second compound 0.3 µM, first compound 0.3 µM): 1.9%; viability, T/C (second compound 0.3 µM, first compound 0.949 µM): 1.03%; viability, T/C (second compound 0.3 µM, first compound 3 µM): 0.5%

Question: `CC1COCCN1c1cc(-c2ccnn2C)c2ccnc(-c3ccn[nH]3)c2n1` (stereo unspecified) + CC[C@@]1(O)C(=O)OCc2c1cc1n(c2=O)Cc2cc3c(CN(C)C)c(O)ccc3nc2-1 was tested. Which IC50 [1] did it give?
Answer: < 31.6 nM

Question: And the IC50 [2]?
Answer: < 31.6 nM

Question: What about the IC50 [3] of the same compound?
Answer: < 31.6 nM

Question: What about the IC50 [4] of the same compound?
Answer: < 31.6 nM

Question: What about the IC50 [5] of the same compound?
Answer: < 31.6 nM

Question: What about the viability, T/C (second compound 0.003 µM, first compound 0.0316 µM) of the same compound?
Answer: 38.2%

Question: What about the viability, T/C (second compound 0.003 µM, first compound 0.1 µM) of the same compound?
Answer: 17.3%

Question: And the viability, T/C (second compound 0.003 µM, first compound 0.316 µM)?
Answer: 13.4%

Question: And the viability, T/C (second compound 0.003 µM, first compound 1 µM)?
Answer: 13.5%

Question: And the viability, T/C (second compound 0.003 µM, first compound 3.16 µM)?
Answer: 15%

Question: And the viability, T/C (second compound 0.003 µM, first compound 10 µM)?
Answer: 15.1%

Question: And the viability, T/C (second compound 0.00949 µM, first compound 0.0316 µM)?
Answer: 16.6%

Question: And the viability, T/C (second compound 0.00949 µM, first compound 0.1 µM)?
Answer: 11.1%

Question: And the viability, T/C (second compound 0.00949 µM, first compound 0.316 µM)?
Answer: 9.94%

Question: And the viability, T/C (second compound 0.00949 µM, first compound 1 µM)?
Answer: 10.2%

Question: And the viability, T/C (second compound 0.00949 µM, first compound 3.16 µM)?
Answer: 12.7%

Question: What about the viability, T/C (second compound 0.00949 µM, first compound 10 µM) of the same compound?
Answer: 14.6%

Question: And the viability, T/C (second compound 0.03 µM, first compound 0.0316 µM)?
Answer: 12.9%

Question: What about the viability, T/C (second compound 0.03 µM, first compound 0.1 µM) of the same compound?
Answer: 11.1%

Question: What about the viability, T/C (second compound 0.03 µM, first compound 0.316 µM) of the same compound?
Answer: 10.6%

Question: And the viability, T/C (second compound 0.03 µM, first compound 1 µM)?
Answer: 10%

Question: What about the viability, T/C (second compound 0.03 µM, first compound 3.16 µM) of the same compound?
Answer: 11.1%

Question: What about the viability, T/C (second compound 0.03 µM, first compound 10 µM) of the same compound?
Answer: 12.1%

Question: What about the viability, T/C (second compound 0.0949 µM, first compound 0.0316 µM) of the same compound?
Answer: 10.7%

Question: What about the viability, T/C (second compound 0.0949 µM, first compound 0.1 µM) of the same compound?
Answer: 8.92%

Question: What about the viability, T/C (second compound 0.0949 µM, first compound 0.316 µM) of the same compound?
Answer: 8.64%

Question: And the viability, T/C (second compound 0.0949 µM, first compound 1 µM)?
Answer: 8.17%

Question: And the viability, T/C (second compound 0.0949 µM, first compound 3.16 µM)?
Answer: 8.68%

Question: What about the viability, T/C (second compound 0.0949 µM, first compound 10 µM) of the same compound?
Answer: 9.11%

Question: And the viability, T/C (second compound 0.3 µM, first compound 0.0316 µM)?
Answer: 6.09%

Question: What about the viability, T/C (second compound 0.3 µM, first compound 0.1 µM) of the same compound?
Answer: 5.5%

Question: And the viability, T/C (second compound 0.3 µM, first compound 0.316 µM)?
Answer: 5.49%

Question: What about the viability, T/C (second compound 0.3 µM, first compound 1 µM) of the same compound?
Answer: 4.45%

Question: What about the viability, T/C (second compound 0.3 µM, first compound 3.16 µM) of the same compound?
Answer: 4.16%

Question: What about the viability, T/C (second compound 0.3 µM, first compound 10 µM) of the same compound?
Answer: 3.75%

Question: What does the source list for `Cn1nnc2c(C(N)=O)ncn2c1=O`?
Answer: viability, T/C (compound 1 µM): 102% [middle of 10 runs]; viability, T/C (compound 3.16 µM): 102% [middle of 10 runs]; viability, T/C (compound 10 µM): 103% [middle of 10 runs]; viability, T/C (compound 31.6 µM): 96.8% [middle of 10 runs]; viability, T/C (compound 100 µM): 94.8% [middle of 9 runs]; IC50 (compound alone, run of 12/02/2019): > 100000 nM
